The subject of data set [1] is 786-O cells. As to the kind of experiment: Annexin V-FITC/PI apoptosis/necrosis, 786-O cells. In kind it is cell-based, human. Conditions: 24 h. On the procedure: Annexin V-FITC/PI staining was performed for quantification of apoptosis and necrotic cell death using FITC AnnexinV apoptosis detection kit I. Green FITC dye stains apoptotic cells whereas propidium iodide stains necrotic cells with red fluorescence. RCC cells were incubated with OPC31260 for 24 h and washed in cold PBS and resuspended in calcium containing binding buffer (10 mM HEPES, 140 mM NaCl, 5 mM CaCl2; pH 7.4) at a concentration of 1×10^6 cells/ml and stained for 15 min, with 5 μl Annexin V-FITC and 5 μl PI at 1 μg/ml (Cell signaling kit, USA). 10,000 cells were analyzed at an excitation wavelength of 488 nm and emission wavelengths of 530 nm for FITC fluorescence and 610 nm for PI fluorescence. The percentages of viable (Annexin V−PI−), early apoptotic (Annexin V+PI−), late apoptotic/necrotic (Annexin V+PI+) and necrotic cells (Annexin V-PI+) were evaluated with the CellQuestPro® software (Becton, Dickinson, Heidelberg, Germany).

For data set [2], the system named is Caki-1 cells. In words: Immunostaining of xenograft tumor sections (Ki-67, BRDU, CD31). In kind it is in vivo, Nu/Nu mice. The note with it: OPC31260 IP, tolvaptan 120 mg/Kg oral, dDAVP 1 μg/Kg IP, daily 28 days. The procedure: (§1) Female Athymic Nude-Foxn1^nu mice (Nu/Nu mice), 7-8 weeks old and weighing ˜25 g were procured from Envigo/Harlan. All animal studies were carried out according to the protocols approved by the University of Kansas Medical Center Institutional Animal Care and Use Committee. Mice were subcutaneously injected on the right flank region with 1×10^6 Caki-1 cells in 100 μl of DMEM medium. One week after injection, palpable tumors appeared and tumor volume was measured with calipers following the formula, […]. Once the tumor volume reached ˜80-100 mm^3, mice were randomized into sub-groups based on the tumor volume. Animals were administered vehicle, OPC31260 (30 mg/Kg BWt.), OPC31260 (60 mg/Kg BWt) or dDAVP (1 μg/Kg BWt.) and vehicle (saline) by daily intraperitoneal injection, or tolvaptan (120 mg/Kg BWt. in 1% aqueous solution of hydroxypropyl methylcellulose-dose derived from previous study^31) or vehicle by daily oral gavage for 28 days. Body weights and tumor volumes were measured every alternate day. At the end of the study, mice were injected with BRDU (100 mg/Kg BWt. by IP) 90 minutes before sacrifice. Tumors were harvested, photographed and weighed. Tumors were flash frozen or paraffin embedded for further analysis.
Tumor tissues were fixed overnight in 4% paraformaldehyde, dehydrated in a graded alcohol series, and embedded in paraffin for histological analysis as previously described^26. Slides with 5 μm tissue sections were heated in a steamer for 20 min in citrate buffer (pH 6.0) to unmask antigens. Slides were further blocked with 10% goat serum (Invitrogen) and then incubated overnight with primary antibody (V2R, CD31, BRDU, Ki67 and p-H3). After washing the slides with PBST, slides were incubated with appropriate fluorescence-labeled secondary antibody (Invitrogen) and streptavidin HRP conjugated (Invitrogen) secondary antibody for immunoflurorescence and immunohistochemistry, respectively. Slides were also incubated in 4′,6-diamidino-2-phenylindole to visualize nuclei. For immunofluorescence staining, slides were mounted with Fluoromount G (Southern Biotech). For immunohistochemistry, slides were developed with DAB (Vector Laboratories) and counterstained with Harris haematoxylin, dehydrated, and mounted with Permount (Fisher Scientific, Waltham, Mass.). All images were captured using a Nikon 80i microscope (Tokyo, Japan) at the KUMC Imaging Center.

Data set [3] concerns Caki-1 cells. In words: Clonogenic assay, Caki-1 cells. It counts as cell-based, human. Conditions: 48 h treatment, 10 days growth. On the procedure:
786-O and Caki-1 cells were plated at very low density (1,000 cells/well) in six-well plates. After 16 h, cells were treated with different doses of OPC31260 and incubated for 48 h. Cells were washed and grown for 10 days until visible colonies formed. Colonies were fixed with 4% paraformaldehyde in PBS, stained with 0.25% crystal violet in 25% methanol, washed, air-dried and photographed. Crystal violet was dissolved in sodium citrate buffer (0.1M, 50% ethanol, pH 4.2) and absorbance was recorded at 590 nm.

In data set [4] the test system is Caki-1 cells. As to the kind of experiment: Western blot of cell lysate, Caki-1 cells. In kind it is cell-based, human. The note with it: 48 h. From the text: (§2) Tumors from mouse xenografts and cultured 786-O and Caki-1 cells were homogenized in SDS Laemmli buffer and loaded onto 10% SDS-polyacrylamide agarose gel electrophoresis gels, transferred to nitrocellulose membranes and blocked with 5% milk in TBST^32. Membranes were probed with primary antibody followed by wash and horseradish peroxidase secondary antibody application.

In data set [5] the test system is Caki-1 cells. As to the kind of experiment: MTT cell viability, Caki-1 cells. It counts as cell-based. The note with it: Homo sapiens, 48 h, read-out: dose at which cell viability declined by 50%. The procedure:
MTT assays were performed to measure cell viability. Briefly, exponentially growing 786-O and Caki-1 cells were seeded in 96 well plates. After 24 h, cells were incubated with different doses of OPC31260 for 48 h. The cells were then incubated in MTT solution (5 mg/mL) for 2 h, following which the MTT solution was removed and the intracellular purple formazan was solubilized in DMSO and quantified by spectrophotometry at […].

For data set [6], the system named is 786-O cells. In words: Cell cycle analysis (propidium iodide, FACS), 786-O cells. It counts as cell-based, human. The note with it: 24 h, 10 μM or higher doses. On the procedure: 786-O and Caki-1 cells were incubated for 24 h with 0, 1, 5, 10, 25 or 50 μM of OPC31260, and stained with propidium iodide for analysis by flow cytometry. Cells were rinsed with PBS and trypsinized, and washed twice with PBS. Single-cell suspensions were fixed using pre-chilled 70% ethanol overnight, and subsequently permeabilized with PBS containing 0.1% Triton X-100, 1 mg/ml propidium iodide (Sigma-Aldrich) and 2 mg/ml DNase-free RNase at room temperature. Flow cytometry was done with a FACS Calibur analyzer (Becton Dickinson, Mountain, View, Calif.), capturing 10,000 events for each sample. Results were analyzed with ModFit LT™ software (Verity Software House, Topsham, Me.).

Data set [7] is classed as in vivo. Conditions: OPC31260 30 and 60 mg/Kg, daily intraperitoneal, 28 days. On the procedure:
as §1

Data set [8] concerns pERK1/2, ERK1/2, pCREB, CREB, VEGF. As to the kind of experiment: Immunoblotting of xenograft tumor lysates. Conditions: tolvaptan 120 mg/Kg oral. It counts as in vivo, Nu/Nu mice. The procedure: as §1, §2
(In general: Immunoblotting shows a protein as a band on a membrane.)

The mark [9] stands for this setting: OPC31260 30/60 mg/kg IP, dDAVP 1 μg/Kg IP, 28 days.

Structures are written as SMILES.

On to `Cc1ccccc1C(=O)Nc1ccc(C(=O)N2CCCC(N(C)C)c3ccccc32)cc1` (stereo not drawn) [OPC31260, 5-(dimethylamino)-1-[4-(2-methylbenzamido)benzoyl]-2,3,4,5-tetrahydro-1H-benzazepine], for which the apoptosis result in data set [1] was “increase in apoptosis”. Besides, in data set [2], the “BRDU staining / incorporation of tumors compared to vehicle” value is “significantly reduced”, the “Ki-67 staining of tumors compared to vehicle” value is on record as “significantly reduced” and the “tumor micro-vessel density (CD31 staining)” value is listed as “significantly reduced”. In addition, in data set [3], the “dose from which a significant decline in colony formation was observed” value was 10 µM. For the same compound, in data set [4], the pCREB levels result is recorded as “dose-dependently reduced” and the pERK1/2 levels result is “dose-dependently reduced”. Moreover, in data set [5], the IC50 is 5 to 10 µM. Also, the “cells in G2/M phase” value in data set [6] is 60-70%. Further, in data set [7], the “body weight of the mice” value was “did not significantly change” and the urine osmolality result is reported as “reduced urine osmolality in a dose dependent manner”. The “CREB levels in tumor lysates” value in data set [8] (OPC31260 30/60 mg/kg IP, 28 days) was “reduced”. Also, in data set [8] (setting [9]), the “pCREB levels in tumor lysates” value is “reduced” and the “pERK1/2 levels in tumor lysates” value is reported as “reduced”. In addition, in data set [8] (OPC31260 IP, dDAVP 1 μg/Kg IP, daily 28 days), the “VEGF protein levels in tumors compared to vehicle” value is given as “significantly reduced”.

The record behind these values is patent US11110098B2, “Methods and medicaments for the treatment of renal cell carcinoma” (University of Kansas, priority 2017, dated 2021).
